From patent publication US10793533B2, “Dimeric contrast agents” (BRACCO IMAGING S.P.A., priority 2016, dated 2020)

Test: Relaxometric properties: longitudinal relaxivity r1p in human plasma
Type: physicochemical
Conditions: expressed per mM gadolinium; for r1p at 0.47 T 37° C., human plasma: 0.47 T (20 MHz); for r1p at 1.41 T 37° C., human plasma: 1.41 T (60 MHz)
Method: The relaxometric properties of some representative complex compounds according to the invention have been determined at different magnetic field strengths, e.g. including 0.47 and 1.41 T, at 37° C., in human plasma and compared with relaxivity values measured, at the same conditions, for some Gd-complex of the market having an analogous cyclic coordination cage.
The longitudinal water proton relaxation rate (R1=1/T1) was measured at 0.47 T with a Minispec MQ-20 spectrometer (Bruker Biospin, Germany) operating at a proton Larmor frequency of 20 MHz; MR experiments at 1.41 T were performed using a Minispec MQ-60 spectrometer (Bruker Biospin, Germany) operating at a proton Larmor frequency of 60 MHz.
All test articles were used as supplied and diluted in the selected medium (human plasma) by weighting the required amount of paramagnetic chelated complex to get a starting solution of 5 or 10 mM concentration in gadolinium.
Relaxivity Measurements Five different concentration samples (0.1, 0.25, 0.5, 0.75 and 1 mM in gadolinium) for each medium have been prepared by further dilution of the starting 5 or 10 mM solution.
Relaxivity measurements were performed at 0.47 T and 1.41 T at a preset temperature sample of 37° C., kept constant by means of a thermostatic bath connected to the sample holder of the spectrometer. The five sample solutions have been preliminary pre-heated at 37° C. in an external thermostatic bath and then left 10 minutes inside the internal bath to assure the stabilization of the temperature. Longitudinal relaxation time T1 was measured by means of a standard inversion recovery sequence, where the inversion time (TI) was varied from 10 ms to at least 5 times T1 in 15 steps. Statistical analysis (mono-exponential fitting for T1 measurement, linear fitting for the evaluation of longitudinal relaxivity) was performed by Mathematica® (Wolfram, USA). Errors on the estimated parameters were evaluated by the fitting procedure.
The relaxivity values r1p of some representative compounds according to the invention, obtained in human plasma at 37° C., are summarized in the following Table A, together with the structure of tested compounds and the strength of the applied magnetic field (in T), and compared with corresponding values measured for two commercial contrast agents in clinical practice having a macrocyclic chelating cage.

SMILES | r1p at 0.47 T 37° C., human plasma [mM⁻¹ s⁻¹] | r1p at 1.41 T 37° C., human plasma [mM⁻¹ s⁻¹]
O=C(O)CN1CCN(CC(=O)O)CCN(CC(O)CN(CCOCCOCCO)CC(O)CN2CCN(CC(=O)O)CCN(CC(=O)O)CCN(CC(=O)O)CC2)CCN(CC(=O)O)CC1 (stereo not drawn) | 10.9 | 10.4
COCCOCCOCCOCCN(CC(O)CN1CCN(CC(=O)O)CCN(CC(=O)O)CCN(CC(=O)O)CC1)CC(O)CN1CCN(CC(=O)O)CCN(CC(=O)O)CCN(CC(=O)O)CC1 (stereo not drawn) | 10.6 | 10.3
O=C(O)CN1CCN(CC(=O)O)CCN(CC(O)CN(CC(O)CN2CCN(CC(=O)O)CCN(CC(=O)O)CCN(CC(=O)O)CC2)C(COCCOCCO)COCCOCCO)CCN(CC(=O)O)CC1 (stereo not drawn) | 10.1 | 9.8
CC(O)CN1CCN(CC(=O)O)CCN(CC(=O)O)CCN(CC(=O)O)CC1 (stereo not drawn) (Gd complex, metal not drawn) [ProHance, reference compound] | 4.9 | 4.15
COCCOCCOCCN(CCN(CCOCCOCCOC)CC(O)CN1CCN(CC(=O)O)CCN(CC(=O)O)CCN(CC(=O)O)CC1)CC(O)CN1CCN(CC(=O)O)CCN(CC(=O)O)CCN(CC(=O)O)CC1 (stereo not drawn) [Chelate Complex 9] | 12.1 | 11.5
O=C(O)CN1CCN(CC(=O)O)CCN(CC(=O)O)CCN(CC(=O)O)CC1 [reference compound] | 4.5 | 3.6
